Values of other authors as cited in patent publication US9374973B2, “Grass endophytes” (GRASSLANZ TECHNOLOGY LTD, priority 2003, dated 2016).

Key:
[1] = tested on: black beetle (Heteronychus arator); conditions: in vivo
[2] = tested on: grazing sheep, cattle, deer and horses
[3] = tested on: Argentine stem weevil (Listronotus bonariensis); conditions: in vivo

Molecule: CC(C)[C@H]1C(=O)N2CCC[C@H]2[C@]2(O)O[C@@](C)(NC(=O)[C@@H]3C=C4c5cccc6[nH]cc(c56)C[C@H]4N(C)C3)C(=O)N12 [Ergovaline]
- Effect on black beetle [1]: deterrent
- Concentration in ryegrass pastures likely to elicit hyperthermia and depressed prolactin responses ([2]; bovine, in vivo): above 0.5 ppm

Molecule: CC(C)=C[C@H]1O[C@H]2[C@H]3O[C@@]34[C@H](CC[C@@]3(C)[C@@]4(O)CC[C@H]4Cc5c([nH]c6ccc7c(c56)C[C@@H]5[C@@H](C7=O)C(C)(C)OC5(C)C)[C@@]43C)O[C@@H]2C(C)(C)O1 [Lolitrem B]
- Herbage concentration that may result in clinical symptoms of ryegrass staggers ([2]; grazing sheep, cattle, deer and horses): > 2 ppm of herbage dry matter

Molecule: Cn1c(CCCN=C(N)N)cn2cccc2c1=O [Peramine]
- Effect on Argentine stem weevil [3]: feeding deterrent

Molecule: lolitrem
- Effect on Argentine stem weevil [3]: toxic
